From patent publication US10584124B2, “Crystalline forms” (Array BioPharma Inc., priority 2017, dated 2020)

How the values were obtained:
[1] = Isothermic (25° C.) DVS analysis of salts of the compound of Formula I; assay type: physicochemical
Text: (FIG. 16D). […] Some hysteresis was observed. […] (FIG. 16C). […] (FIG. 16D).
(FIG. 18A). […] (FIG. 18B). […] Some hysteresis was observed. […] An overlay of FTIR spectra of the L- and D-malic acid salts is shown in FIG. 18F. ^1H NMR spectra of the L- and D-malic salts in DMSO-d^6 are shown in FIG. 18G-18H, respectively.

[2] = Solubility test of the L-malic acid salt at room temperature; assay type: physicochemical; details: DMSO, two lots
[3] = Second solubility study of the L-malic acid salt at elevated temperatures (60° C., 70° C.); assay type: physicochemical; details: for Solids dissolve at 70° C.?: 70° C. for approximately 3.0 hours
[4] = Stability screening of freebase and selected salts of Formula I, 40° C. and 75% RH, weekly HPLC over 4 weeks
[5] = Dynamic vapor sorption (DVS) of the compound of Formula II; assay type: physicochemical
Protocol: Approximately 10 mg of sample was placed into a mesh vapor sorption balance pan and loaded into a DVS-1 dynamic vapor sorption balance by Surface Measurement Systems. The sample was subjected to a ramping profile from 40-90% relative humidity (RH) at 10% increments, maintaining the sample at each step until a stable weight had been achieved (99.5% step completion). After completion of the sorption cycle, the sample was dried using the same procedure to 0% RH and then a second sorption cycle back to 40% RH. The weight change during the sorption/desorption cycles were plotted, allowing for the hygroscopic nature of the sample to be determined. XRPD analysis was then carried out on any solid retained.
The material appeared highly crystalline by XRPD (FIG. 62A). […] This event was followed by thermal degradation. […] (FIG. 62B).

[6] = Solvent solubility screen of the compound of Formula II; assay type: physicochemical; details: 40 °C, thermodynamic from solid, read-out: Approximate solubility
Protocol: A solvent solubility screen was conducted in 32 solvent systems as follows.
Between each addition, the mixture was checked for dissolution. If no dissolution was apparent, the mixture was heated to around 40° C. and checked again. This procedure was continued until dissolution was observed or until 100 volumes of solvent had been added. Undissolved material from the solubility screen was isolated and analyzed by XRPD.

SMILES: COc1ccc(CN2CCN(c3ccc(-c4cc(-c5cnn(C)c5)cn5ncc(C#N)c45)cn3)CC2)cn1.O=C(O)C[C@H](O)C(=O)O [L-malic acid salt]
- Mass gain by DVS ([1]; 80% relative humidity, 25° C.): approximately 2.8%
- Hygroscopicity by DVS (in words) ([1]; isothermic 25° C.): hygroscopic
- Deliquescence upon removal from the DVS chamber ([1]; sample remained a free-flowing powder): no observable deliquescence
- solubility [2]: 14000 to 15000 µg/mL
- Solids dissolve at 60° C.? ([3]; 60° C. for 3.0 hours, solvent 0.1M HCl, Yes): Yes (>13.4 mg/mL)
- Solids dissolve at 60° C.? ([3]; 60° C. for 3.0 hours, solvent 2-methyl THF): No
- Solids dissolve at 60° C.? ([3]; 60° C. for 3.0 hours, solvent ACN): No
- Solids dissolve at 60° C.? ([3]; 60° C. for 3.0 hours, solvent Acetone): No
- Solids dissolve at 60° C.? ([3]; 60° C. for 3.0 hours, solvent DCE): No
- Solids dissolve at 60° C.? ([3]; 60° C. for 3.0 hours, solvent DMSO, Yes): Yes (>36 mg/mL)
- Solids dissolve at 60° C.? ([3]; 60° C. for 3.0 hours, solvent EtOAc): No
- Solids dissolve at 60° C.? ([3]; 60° C. for 3.0 hours, solvent EtOH): No
- Solids dissolve at 60° C.? ([3]; 60° C. for 3.0 hours, solvent IPA): No
- Solids dissolve at 60° C.? ([3]; 60° C. for 3.0 hours, solvent MEK): No
- Solids dissolve at 60° C.? ([3]; 60° C. for 3.0 hours, solvent MTBE): No
- Solids dissolve at 60° C.? ([3]; 60° C. for 3.0 hours, solvent MeOH): No
- Solids dissolve at 60° C.? ([3]; 60° C. for 3.0 hours, solvent Toluene): No
- Solids dissolve at 60° C.? ([3]; 60° C. for 3.0 hours, solvent iPAc): No
- Solids dissolve at 60° C.? ([3]; 60° C. for 3.0 hours, solvent water): No
- Solids dissolve at 70° C.? ([3]; solvent 2-methyl THF): No
- Solids dissolve at 70° C.? ([3]; solvent ACN): No
- Solids dissolve at 70° C.? ([3]; solvent DCE): No
- Solids dissolve at 70° C.? ([3]; solvent DMSO, Yes): Yes (>56 mg/mL)
- Solids dissolve at 70° C.? ([3]; solvent EtOAc): No
- Solids dissolve at 70° C.? ([3]; solvent EtOH): No
- Solids dissolve at 70° C.? ([3]; solvent IPA): No
- Solids dissolve at 70° C.? ([3]; solvent MEK): No
- Solids dissolve at 70° C.? ([3]; solvent MTBE): No
- Solids dissolve at 70° C.? ([3]; solvent Toluene): No
- Solids dissolve at 70° C.? ([3]; solvent iPAc): No
- Solids dissolve at 70° C.? ([3]; solvent water): No
- Solids dissolve at 60° C.? ([3]; solvent THF, cell says 65° C.): ~65 °C almost 12.3 mg/mL
- Absolute % change ([4]; 40° C. and 75% RH, T = 0 to 4 weeks): 0.5%
- Stability, HPLC analysis, T = 1 week ([4]; stored at 40° C. and 75% RH, 1 week): 97.7%
- Stability, HPLC analysis, T = 2 weeks ([4]; stored at 40° C. and 75% RH, 2 weeks): 97.4%
- Stability, HPLC analysis, T = 3 weeks ([4]; stored at 40° C. and 75% RH, 3 weeks): 97.4%
- Stability, HPLC analysis, T = 4 weeks ([4]; stored at 40° C. and 75% RH, 4 weeks): 97.3%
- Stability, HPLC analysis, T = 0 ([4]; stored at 40° C. and 75% RH, T = 0): 97.8%

SMILES: COc1ccc(CN2C3CC2CN(c2ccc(-c4cc(OCC(C)(C)O)cn5ncc(C#N)c45)cn2)C3)cn1 [compound of Formula II, 6-(2-hydroxy-2-methylpropoxy)-4-(6-(6-((6-methoxypyridin-3-yl)methyl)-3,6-diazabicyclo[3.1.1]heptan-3-yl)pyridin-3-yl)pyrazolo[1,5-a]pyridine-3-carbonitrile]
- Hygroscopicity by DVS (in words) [5]: moderately hygroscopic
- Weight increase by DVS ([5]; 90% RH): around 3.6%
- Change in Form post-DVS ([5]; XRPD after DVS): No change in Form
- solubility ([6]; 1-Butanol, organic solvent or mixture): < 5000 µg/mL
- solubility ([6]; 1-Propanol, organic solvent or mixture): < 5000 µg/mL
- solubility ([6]; organic solvent or mixture, 1,4-Dioxane, (P) partial solubility at 100 volumes): < 5000 µg/mL
- solubility ([6]; organic solvent or mixture, 2-Ethoxyethanol, (P) partial solubility at 100 volumes): < 5000 µg/mL
- solubility ([6]; organic solvent or mixture, 2-Methyl THF, (P) partial solubility at 100 volumes): < 5000 µg/mL
- solubility ([6]; organic solvent or mixture, Anisole, (P) partial solubility at 100 volumes): < 5000 µg/mL
- solubility ([6]; organic solvent or mixture, CHCl3, (P) partial solubility at 100 volumes): < 5000 µg/mL
- solubility ([6]; organic solvent or mixture, Cyclohexanone, (P) partial solubility at 100 volumes): < 5000 µg/mL
- solubility ([6]; organic solvent or mixture, DCM, (P) partial solubility at 100 volumes): < 5000 µg/mL
- solubility ([6]; organic solvent or mixture, Nitromethane, (P) partial solubility at 100 volumes): < 5000 µg/mL
- solubility ([6]; organic solvent or mixture, THF, (P) partial solubility at 100 volumes): < 5000 µg/mL
- solubility ([6]; Acetone, organic solvent or mixture): < 5000 µg/mL
- solubility ([6]; Acetone:Water (50%), aqueous with cosolvent or surfactant or cyclodextrin): < 5000 µg/mL
- solubility ([6]; Cyclohexane, organic solvent or mixture): < 5000 µg/mL
- solubility ([6]; DMSO, organic solvent or mixture): 41000 µg/mL
- solubility ([6]; EtOAc, organic solvent or mixture): < 5000 µg/mL
- solubility ([6]; Ethanol, organic solvent or mixture): < 5000 µg/mL
- solubility ([6]; IPA, organic solvent or mixture): < 5000 µg/mL
- solubility ([6]; MEK, organic solvent or mixture): < 5000 µg/mL
- solubility ([6]; MIBK, organic solvent or mixture): < 5000 µg/mL
- solubility ([6]; MeCN:Water (20%), aqueous with cosolvent or surfactant or cyclodextrin): 5000 µg/mL
- solubility ([6]; MeOAc, organic solvent or mixture): < 5000 µg/mL
- solubility ([6]; NMP, organic solvent or mixture): 17000 µg/mL
- solubility ([6]; THF:Water (1%), organic solvent or mixture): 48000 µg/mL
- solubility ([6]; Water, water): < 5000 µg/mL
